Source: patent US7498406B2, “Substantially cell membrane impermeable compound and use thereof” (priority 1999, dated 2009)

Key:
Human T cells (A3.01) = assay: Tritiated GSAO in cytosol (membrane permeability); format: in vitro ADME
Experimental: (§1) Human T cells (A3.01) or adherent BAE cells were incubated with complete medium containing 50 μM GSAO and ˜100,000 counts per, minute of tritiated GSAO for 1 or 72 hours. Tritiated GSAO was prepared exactly as described for GSAO except that glycine-2-^3H-glutathione (NEN, Boston, Mass.) was used in place of cold glutathione. The cells were washed and lysed by two cycles of freezing and thawing. The cytosolic constituents were collected by differential centrifugation (Ausbel et al., 2000) and the tritiated GSAO was measured. Only 0.5% of the total tritiated GSAO was found in the T cell cytosol and 0.04% in the BAE cytosol after 1 hour. Moreover, only 4.5% of the GSAO penetrated the T cell membrane after 72 hours of culture.

BAE cells = assay: Tritiated GSAO in cytosol (membrane permeability); format: in vitro ADME, bovine; conditions: 50 μM GSAO, 1 hour
Experimental: as §1

[1] = tested on: primary HIV isolates (HN11, HN68 or HN70); assay: Infection of PBMC's by primary HIV isolates, p24 antigen; format: cell-based; conditions: 10 μM, 7 days
Experimental: PBMC's (1×10^6 per mL) were incubated with GSAA or GSAO (10 μM) for 30 minutes at 37° C. and then with primary HIV isolates (HN11, HN68 or HN70 at 50 TCID50 per 10^6 cells) for 2 hours at 37° C. Cells were washed and incubated in complete medium containing GSAA or GSAO (10 μM) at 5% CO2 and 37° C. for up to 7 days. At the indicated times the conditioned medium was collected and assayed for p24 antigen and cell number and cell viability was determined.
The primary HIV isolates, HN11, HN68 and HN70, were provided by Dr. Hassan Naif, Centre for Virus Research, Westmead Millennium Institute, NSW, Australia. […] The blood was diluted 1:2 with PBS, layered onto Ficoll-Hypaque (35 mL blood onto 15 mL Ficoll-Hypaque) in 50 mL Falcon tubes and centrifuged at 400 g for 20 minutes at 20° C. The PBMC's were collected and pelleted at 1200 rpm for 10 minutes to remove platelets, resuspended at 2×10^6 cells per mL in RPMI containing 20% horse serum (Gibco BRL, Gaithersburg, Md.), 10 μg per mL phytohemagglutinin-M (PHA-M, Boehringer Mannheim Biochemica, Mannheim, Germany) and […] interleukin-2 (Sigma, St. Louis, Mo.) and incubated for 2 days at 5% CO2 and 37° C., PBMC (1×10^6 per mL) were incubated with GSAO or GSAA (10 μM) for 30 minutes at 37° C. in serum-free media. Virus was added at 50 TCID50 per 10^6 cells for 2 hours at 37° C.. […]

In the case of NC(CCC(=O)NC(CSCC(=O)Nc1ccc([As]=O)cc1)C(=O)NCC(=O)O)C(=O)O (centres unmarked) [GSAO, 4-(N-(S-glutathionylacetyl)amino)-phenylarsenoxide], the “total tritiated GSAO found in the cytosol” value (Human T cells (A3.01); 50 μM GSAO, 1 hour) is reported as 0.5%, the “GSAO that penetrated the T cell membrane” value (Human T cells (A3.01); 50 μM GSAO, 72 hours of culture) is reported as 4.5% and the “crossing of the plasma membrane” value (Human T cells (A3.01); A3.01 or BAE cells) is reported as “does not cross the plasma membrane to any significant extent”. The “total tritiated GSAO found in the cytosol” value (BAE cells) was 0.04% and the “infection of PBMC's by primary HIV isolates” value [1] was “blocked infection”.
